Experiment: In vitro cytotoxicity in different cell lines using the CellTiter-Blue Cell Viability Assay
Format: cell-based, human
Settings: Homo sapiens, 96 h, read-out: Geomean IC50

Compound | IC50
COc1cc2cc(c1Cl)N(C)C(=O)C[C@H](OC(=O)Cc1ccc(C(C)=O)c(F)c1)[C@]1(C)O[C@H]1[C@H](C)[C@@H]1C[C@@](O)(NC(=O)O1)[C@H](OC)/C=C/C=C(\C)C2 [Compound 5] | 0.9 nM
COc1cc2cc(c1Cl)N(C)C(=O)C[C@H](OC(=O)Cc1ccc(C(C)=O)cc1[N+](=O)[O-])[C@]1(C)O[C@H]1[C@H](C)[C@@H]1C[C@@](O)(NC(=O)O1)[C@H](OC)/C=C/C=C(\C)C2 [Compound 6] | 2.14 nM
COc1cc2cc(c1Cl)N(C)C(=O)C[C@H](OC(=O)Cc1ccc(C(C)=O)c([N+](=O)[O-])c1)[C@]1(C)O[C@H]1[C@H](C)[C@@H]1C[C@@](O)(NC(=O)O1)[C@H](OC)/C=C/C=C(\C)C2 [Compound 7] | 0.89 nM
COc1cc2cc(c1Cl)N(C)C(=O)C[C@H](OC(=O)CCCc1ccc(C(C)=O)cc1)[C@]1(C)O[C@H]1[C@H](C)[C@@H]1C[C@@](O)(NC(=O)O1)[C@H](OC)/C=C/C=C(\C)C2 [Compound 8] | 0.1 nM
COc1cc2cc(c1Cl)N(C)C(=O)C[C@H](OC(=O)CCc1ccc(C(C)=O)cc1)[C@]1(C)O[C@H]1[C@H](C)[C@@H]1C[C@@](O)(NC(=O)O1)[C@H](OC)/C=C/C=C(\C)C2 [Compound 9] | 0.19 nM
COc1cc2cc(c1Cl)N(C)C(=O)C[C@H](OC(=O)CN(C)c1ccc(C(C)=O)cc1)[C@]1(C)O[C@H]1[C@H](C)[C@@H]1C[C@@](O)(NC(=O)O1)[C@H](OC)/C=C/C=C(\C)C2 [Compound 10] | 0.3 nM
COc1cc2cc(c1Cl)N(C)C(=O)C[C@H](OC(=O)CSc1ccc(C(C)=O)cc1)[C@]1(C)O[C@H]1[C@H](C)[C@@H]1C[C@@](O)(NC(=O)O1)[C@H](OC)/C=C/C=C(\C)C2 [Compound 11] | 0.21 nM
COc1cc2cc(c1Cl)N(C)C(=O)C[C@H](OC(=O)CSc1ccc(C(C)=O)cc1C)[C@]1(C)O[C@H]1[C@H](C)[C@@H]1C[C@@](O)(NC(=O)O1)[C@H](OC)/C=C/C=C(\C)C2 [Compound 12] | 0.76 nM
COc1cc2cc(c1Cl)N(C)C(=O)C[C@H](OC(=O)CSc1ccc(C(C)=O)cc1C(F)(F)F)[C@]1(C)O[C@H]1[C@H](C)[C@@H]1C[C@@](O)(NC(=O)O1)[C@H](OC)/C=C/C=C(\C)C2 [Compound 13] | 0.88 nM
COc1cc2cc(c1Cl)N(C)C(=O)C[C@H](OC(=O)CSc1ccc(C(C)=O)cc1[N+](=O)[O-])[C@]1(C)O[C@H]1[C@H](C)[C@@H]1C[C@@](O)(NC(=O)O1)[C@H](OC)/C=C/C=C(\C)C2 [Compound 14] | 1.54 nM
COc1cc2cc(c1Cl)N(C)C(=O)C[C@H](OC(=O)CSc1ccc(C(C)=O)cc1Cl)[C@]1(C)O[C@H]1[C@H](C)[C@@H]1C[C@@](O)(NC(=O)O1)[C@H](OC)/C=C/C=C(\C)C2 [Compound 15] | 0.18 nM
COc1cc2cc(c1Cl)N(C)C(=O)C[C@H](OC(=O)CSc1ccc(C(C)=O)cc1Br)[C@]1(C)O[C@H]1[C@H](C)[C@@H]1C[C@@](O)(NC(=O)O1)[C@H](OC)/C=C/C=C(\C)C2 [Compound 16] | 0.32 nM
COc1cc(C(C)=O)ccc1SCC(=O)O[C@H]1CC(=O)N(C)c2cc(cc(OC)c2Cl)C/C(C)=C/C=C/[C@@H](OC)[C@@]2(O)C[C@H](OC(=O)N2)[C@@H](C)[C@@H]2O[C@@]12C [Compound 17] | 0.45 nM
COc1cc2cc(c1Cl)N(C)C(=O)C[C@H](OC(=O)COc1ccc(C(C)=O)cc1)[C@]1(C)O[C@H]1[C@H](C)[C@@H]1C[C@@](O)(NC(=O)O1)[C@H](OC)/C=C/C=C(\C)C2 [Compound 18] | 0.13 nM
COc1cc2cc(c1Cl)N(C)C(=O)C[C@H](OC(=O)C(C)(C)Oc1ccc(C(C)=O)cc1)[C@]1(C)O[C@H]1[C@H](C)[C@@H]1C[C@@](O)(NC(=O)O1)[C@H](OC)/C=C/C=C(\C)C2 [Compound 19] | 1.12 nM
COc1cc2cc(c1Cl)N(C)C(=O)C[C@H](OC(=O)C1CCCN1C(=O)c1ccc(C(C)=O)cc1)[C@]1(C)O[C@H]1[C@H](C)[C@@H]1C[C@@](O)(NC(=O)O1)[C@H](OC)/C=C/C=C(\C)C2 (some centres unmarked) [Compound 20] | 0.94 nM
COc1cc2cc(c1Cl)N(C)C(=O)C[C@H](OC(=O)CNC(=O)c1ccc(C(C)=O)cc1)[C@]1(C)O[C@H]1[C@H](C)[C@@H]1C[C@@](O)(NC(=O)O1)[C@H](OC)/C=C/C=C(\C)C2 [Compound 21] | 1.67 nM
CCN(CC(=O)O[C@H]1CC(=O)N(C)c2cc(cc(OC)c2Cl)C/C(C)=C/C=C/[C@@H](OC)[C@@]2(O)C[C@H](OC(=O)N2)[C@@H](C)[C@@H]2O[C@@]12C)C(=O)c1ccc(C(C)=O)cc1 [Compound 22] | 25 nM
COc1cc2cc(c1Cl)N(C)C(=O)C[C@H](OC(=O)C1CCCN1C(=O)Nc1ccc(C(C)=O)cc1)[C@]1(C)O[C@H]1[C@H](C)[C@@H]1C[C@@](O)(NC(=O)O1)[C@H](OC)/C=C/C=C(\C)C2 (some centres unmarked) [Compound 23] | 26.8 nM
COc1cc2cc(c1Cl)N(C)C(=O)C[C@H](OC(=O)[C@H](C)N(C)C(=O)c1ccc(C(C)=O)cc1)[C@]1(C)O[C@H]1[C@H](C)[C@@H]1C[C@@](O)(NC(=O)O1)[C@H](OC)/C=C/C=C(\C)C2 [Compound 24] | 9.04 nM
COc1cc2cc(c1Cl)N(C)C(=O)C[C@H](OC(=O)CN(C)C(=O)c1ccc(C(C)=O)cc1)[C@]1(C)O[C@H]1[C@H](C)[C@@H]1C[C@@](O)(NC(=O)O1)[C@H](OC)/C=C/C=C(\C)C2 [Compound 25] | 8.47 nM
COc1cc2cc(c1Cl)N(C)C(=O)C[C@H](OC(=O)CN(C)C(=O)c1ccc(C(C)=O)nc1)[C@]1(C)O[C@H]1[C@H](C)[C@@H]1C[C@@](O)(NC(=O)O1)[C@H](OC)/C=C/C=C(\C)C2 [Compound 26] | 18.5 nM
COc1cc2cc(c1Cl)N(C)C(=O)C[C@H](OC(=O)CCNC(=O)c1ccc(C(C)=O)cc1)[C@]1(C)O[C@H]1[C@H](C)[C@@H]1C[C@@](O)(NC(=O)O1)[C@H](OC)/C=C/C=C(\C)C2 [Compound 27] | 11.7 nM
COc1cc2cc(c1Cl)N(C)C(=O)C[C@H](OC(=O)Nc1ccc(C(C)=O)cc1)[C@]1(C)O[C@H]1[C@H](C)[C@@H]1C[C@@](O)(NC(=O)O1)[C@H](OC)/C=C/C=C(\C)C2 [Compound 28] | 10.6 nM
COc1cc2cc(c1Cl)N(C)C(=O)C[C@H](OC(=O)[C@H](C)N(C)C(=O)CCC(C)=O)[C@]1(C)O[C@H]1[C@H](C)[C@@H]1C[C@@](O)(NC(=O)O1)[C@H](OC)/C=C/C=C(\C)C2 [Compound 44] | 7.21 nM

Same assay, conditions: Homo sapiens; geometric mean over the n cell lines tested, 96 h treatment, CellTiter-Blue; read-out: Geomean IC50

Compound | IC50
COc1cc2cc(c1Cl)N(C)C(=O)CC(O)C1(C)OC1C(C)C1CC(O)(NC(=O)O1)C(OC)/C=C/C=C(\C)C2 (centres unmarked) [Maytansinol, reference compound] | 86 nM
